Source: ChEMBL document CHEMBL1201862, “PubChem BioAssay data set” (2004)
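Cultured in 96-well plates, cells were exposed to test compound for 48 hours across five concentrations. GI50 = concentration required for 50% inhibition of growth.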 Calls of active or inactive are those of the source. Cut-off read from the data, not from the text of the source: active = GI50 up to about 1.1 µM and inactive = higher.

Key:
Assay in all cases: NCI tumour cell line growth inhibition, 48 h
786-0 = test system: 786-0
A549 = test system: A549
CAKI-1 = test system: CAKI-1
CCRF-CEM = test system: CCRF-CEM
COLO 205 = test system: COLO 205
DU-145 = test system: DU-145
EKVX = test system: EKVX
HCC 2998 = test system: HCC 2998
HCT-15 = test system: HCT-15
HL-60 = test system: HL-60
HOP-62 = test system: HOP-62
HT-29 = test system: HT-29
IGROV-1 = test system: IGROV-1
K562 = test system: K562
KM12 = test system: KM12
LOX IMVI = test system: LOX IMVI
M14 = test system: M14
MCF7 = test system: MCF7
MDA-MB-231 = test system: MDA-MB-231
MDA-N = test system: MDA-N
MOLT-4 = test system: MOLT-4
Malme-3M = test system: Malme-3M
NCI-H23 = test system: NCI-H23
OVCAR-8 = test system: OVCAR-8
PC-3 = test system: PC-3
RPMI-8226 = test system: RPMI-8226
RXF 393 = test system: RXF 393
SF-268 = test system: SF-268
SF-295 = test system: SF-295
SK-MEL-28 = test system: SK-MEL-28
SK-MEL-5 = test system: SK-MEL-5
SK-OV-3 = test system: SK-OV-3
SN12C = test system: SN12C
SNB-75 = test system: SNB-75
SR = test system: SR
SW-620 = test system: SW-620
T47D = test system: T47D
TK-10 = test system: TK-10
UACC-257 = test system: UACC-257
UACC-62 = test system: UACC-62
A498 = test system: A498
ACHN = test system: ACHN
HCT-116 = test system: HCT-116
HOP-92 = test system: HOP-92
Hs-578T = test system: Hs-578T
MDA-MB-435 = test system: MDA-MB-435
NCI/ADR-RES = test system: NCI/ADR-RES
OVCAR-3 = test system: OVCAR-3
OVCAR-4 = test system: OVCAR-4
OVCAR-5 = test system: OVCAR-5
SF-539 = test system: SF-539
SK-MEL-2 = test system: SK-MEL-2
UO-31 = test system: UO-31

How did the GI50 (786-0) turn out when `C/C(=C\CCC1=CC(=O)OC1)CC[C@@H]1[C@H]2C(=O)CC(C)[C@@]3(C)CC[C@]1(C)[C@@]23C` (stereo partly drawn) was run?
The GI50 was > 10 µM (inactive).

What about the GI50 (A549) of the same compound?
Its GI50 is > 10 µM (inactive).

What about the GI50 (CAKI-1) of the same compound?
The GI50 was > 10 µM (inactive).

What about the GI50 (CCRF-CEM) of the same compound?
Its GI50 is > 10 µM (inactive).

And the GI50 (COLO 205)?
Its GI50 is > 10 µM (inactive).

What about the GI50 (DU-145) of the same compound?
The GI50 was > 10 µM (inactive).

What about the GI50 (EKVX) of the same compound?
Its GI50 is > 10 µM (inactive).

What about the GI50 (HCC 2998) of the same compound?
Its GI50 is > 10 µM (inactive).

What about the GI50 (HCT-15) of the same compound?
The GI50 was over 10 µM.

And the GI50 (HL-60)?
Its GI50 is > 10 µM (inactive).

What about the GI50 (HOP-62) of the same compound?
The GI50 was > 10 µM (inactive).

What about the GI50 (HT-29) of the same compound?
The GI50 was > 10 µM (inactive).

And the GI50 (IGROV-1)?
The GI50 was > 10 µM (inactive).

And the GI50 (K562)?
The GI50 was > 10 µM (inactive).

What about the GI50 (KM12) of the same compound?
The GI50 was > 10 µM (inactive).

And the GI50 (LOX IMVI)?
Its GI50 is > 10 µM (inactive).

What about the GI50 (M14) of the same compound?
The GI50 was > 10 µM (inactive).

What about the GI50 (MCF7) of the same compound?
The GI50 was > 10 µM (inactive).

And the GI50 (MDA-MB-231)?
Its GI50 is > 10 µM (inactive).

What about the GI50 (MDA-N) of the same compound?
The GI50 was > 10 µM (inactive).

And the GI50 (MOLT-4)?
Its GI50 is > 10 µM (inactive).

What about the GI50 (Malme-3M) of the same compound?
Its GI50 is > 10 µM (inactive).

And the GI50 (NCI-H23)?
The GI50 was > 10 µM (inactive).

What about the GI50 (OVCAR-8) of the same compound?
Its GI50 is > 10 µM (inactive).

What about the GI50 (PC-3) of the same compound?
Its GI50 is > 10 µM (inactive).

What about the GI50 (RPMI-8226) of the same compound?
The GI50 was > 10 µM (inactive).

What about the GI50 (RXF 393) of the same compound?
Its GI50 is > 10 µM (inactive).

What about the GI50 (SF-268) of the same compound?
Its GI50 is > 10 µM (inactive).

What about the GI50 (SF-295) of the same compound?
Its GI50 is > 10 µM (inactive).

And the GI50 (SK-MEL-28)?
The GI50 was > 10 µM (inactive).

And the GI50 (SK-MEL-5)?
Its GI50 is > 10 µM (inactive).

What about the GI50 (SK-OV-3) of the same compound?
The GI50 was > 10 µM (inactive).

And the GI50 (SN12C)?
Its GI50 is > 10 µM (inactive).

And the GI50 (SNB-75)?
Its GI50 is > 10 µM (inactive).

What about the GI50 (SR) of the same compound?
Its GI50 is > 10 µM (inactive).

And the GI50 (SW-620)?
Its GI50 is > 10 µM (inactive).

And the GI50 (T47D)?
Its GI50 is > 10 µM (inactive).

And the GI50 (TK-10)?
The GI50 was > 10 µM (inactive).

What about the GI50 (UACC-257) of the same compound?
Its GI50 is > 10 µM (inactive).

And the GI50 (UACC-62)?
The GI50 was > 10 µM (inactive).

With `O=C(CCc1ccc(O)cc1)c1c(O)cc(O)cc1OC1OC(CO)C(O)C(O)C1O` (stereo not drawn) as the compound, how does the GI50 (786-0) read?
The GI50 was > 100 µM (inactive).

And the GI50 (A498)?
Its GI50 is > 100 µM (inactive).

And the GI50 (A549)?
Its GI50 is > 100 µM (inactive).

And the GI50 (ACHN)?
The GI50 was > 100 µM (inactive).

What about the GI50 (CAKI-1) of the same compound?
The GI50 was > 100 µM (inactive).

And the GI50 (COLO 205)?
Its GI50 is > 100 µM (inactive).

What about the GI50 (DU-145) of the same compound?
The GI50 was > 100 µM (inactive).

What about the GI50 (EKVX) of the same compound?
Its GI50 is > 100 µM (inactive).

What about the GI50 (HCC 2998) of the same compound?
The GI50 was > 100 µM (inactive).

And the GI50 (HCT-116)?
The GI50 was > 100 µM (inactive).

And the GI50 (HCT-15)?
The GI50 was over 100 µM.

And the GI50 (HOP-62)?
The GI50 was > 100 µM (inactive).

And the GI50 (HOP-92)?
The GI50 was > 100 µM (inactive).

What about the GI50 (HT-29) of the same compound?
The GI50 was > 100 µM (inactive).

What about the GI50 (Hs-578T) of the same compound?
Its GI50 is > 100 µM (inactive).

What about the GI50 (IGROV-1) of the same compound?
The GI50 was > 100 µM (inactive).

What about the GI50 (K562) of the same compound?
The GI50 was > 100 µM (inactive).

And the GI50 (KM12)?
The GI50 was > 100 µM (inactive).

What about the GI50 (LOX IMVI) of the same compound?
Its GI50 is > 100 µM (inactive).

And the GI50 (M14)?
The GI50 was > 100 µM (inactive).

What about the GI50 (MDA-MB-435) of the same compound?
Its GI50 is > 100 µM (inactive).

What about the GI50 (MDA-N) of the same compound?
The GI50 was > 100 µM (inactive).

What about the GI50 (Malme-3M) of the same compound?
Its GI50 is > 100 µM (inactive).

And the GI50 (NCI-H23)?
Its GI50 is > 100 µM (inactive).

What about the GI50 (NCI/ADR-RES) of the same compound?
Its GI50 is > 100 µM (inactive).

What about the GI50 (OVCAR-3) of the same compound?
Its GI50 is > 100 µM (inactive).

And the GI50 (OVCAR-4)?
Its GI50 is > 100 µM (inactive).

And the GI50 (OVCAR-5)?
Its GI50 is > 100 µM (inactive).

And the GI50 (PC-3)?
Its GI50 is > 100 µM (inactive).

What about the GI50 (SF-268) of the same compound?
The GI50 was > 100 µM (inactive).

And the GI50 (SF-295)?
The GI50 was > 100 µM (inactive).

What about the GI50 (SF-539) of the same compound?
The GI50 was > 100 µM (inactive).

And the GI50 (SK-MEL-28)?
The GI50 was > 100 µM (inactive).

And the GI50 (SK-MEL-2)?
Its GI50 is > 100 µM (inactive).

What about the GI50 (SK-MEL-5) of the same compound?
The GI50 was > 100 µM (inactive).

What about the GI50 (SK-OV-3) of the same compound?
The GI50 was > 100 µM (inactive).

And the GI50 (SNB-75)?
The GI50 was > 100 µM (inactive).

And the GI50 (SW-620)?
The GI50 was > 100 µM (inactive).

And the GI50 (T47D)?
Its GI50 is > 100 µM (inactive).

And the GI50 (TK-10)?
Its GI50 is > 100 µM (inactive).

And the GI50 (UACC-257)?
Its GI50 is > 100 µM (inactive).

And the GI50 (UACC-62)?
The GI50 was > 100 µM (inactive).

And the GI50 (UO-31)?
The GI50 was > 100 µM (inactive).
